The values below come from patent US10570152B2, “Antibacterial therapeutics and prophylactics” (VYOME BIOSCIENCES PVT. LTD., priority 2015, dated 2020).

Molecules are shown by their SMILES. ≈ marks a conversion by molar mass, not a printed value. Like-named read-outs stand apart in the source and are kept apart here.

Experiment [1] deals with S. epidermidis ATCC 35984. Put plainly: MIC by micro broth dilution. It counts as cell-based. Particulars: Staphylococcus epidermidis, ATCC35984, read-out: Minimum inhibitory concentration (MIC). As to the method: (§1) MIC of DART molecules were determined by micro broth dilution as per CLSI guidelines. Bacterial strains were cultured in Brain Heart Infusion Agar (BHIA) at 37° C. for 24 h. For MIC determination, BHI broth (100 μl) was added to each of the wells of a 96 well plate. 100 μl of broth containing drug was added to the first well (1A to 1H) and thereafter serial (double) dilutions were carried out for up to 10 wells (column 1 to column 10 of the 96 well plate). Bacterial inoculum was prepared by adjusting the bacterial culture turbidity to 0.5 McFarland standard (approximately 1.5×10^8 cells/ml) and further diluted (100 times with sterile BHI broth). Diluted bacterial suspension (100 μl) was added to each well except sterility control wells (column 12 of 96 well plate). The plates were incubated at 37° C. for 24 h. The MIC of the test compound was measured after addition of Alamar blue dye.
Background: Dilution methods test growth across graded concentrations, often in twofold steps.

Experiment [2] relates to S. epidermidis S12-1. The experiment is described as follows: MIC by micro broth dilution. Particulars: Staphylococcus epidermidis, S121, read-out: Minimum inhibitory concentration (MIC). The experiment is classed as cell-based. As to the method:
as §1

The test system of experiment [3] is S. aureus MTCC 6908. The experiment is described as follows: MIC by micro broth dilution. It counts as cell-based. Particulars: Staphylococcus aureus, MTCC6908, read-out: Minimum inhibitory concentration (MIC). The procedure:
as §1

Experiment [4] has as its system S. aureus ATCC 43300. Put plainly: MIC by micro broth dilution. The experiment is classed as cell-based. Particulars: for MIC: Staphylococcus aureus, ATCC43300, S. aureus ATCC 43300, read-out: Minimum inhibitory concentration (MIC). As to the method:
as §1

Experiment [5] relates to P. aeruginosa CCARM 2204. The experiment is described as follows: MIC by micro broth dilution. Particulars: Pseudomonas aeruginosa, CCARM2204, read-out: Minimum inhibitory concentration (MIC). It counts as cell-based. The procedure:
as §1

The test system of experiment [6] is E. aerogenes NCIM 5139. Put plainly: MIC by micro broth dilution. It counts as cell-based. Particulars: Klebsiella aerogenes, NCIM5139, read-out: Minimum inhibitory concentration (MIC). As to the method:
as §1

Experiment [7] relates to K. pneumonia ATCC 13883. The experiment is described as follows: MIC by micro broth dilution. The experiment is classed as cell-based. Particulars: for MIC: Klebsiella pneumoniae, ATCC13883, K. pneumonia ATCC 13883, read-out: Minimum inhibitory concentration (MIC). The procedure: as §1
Experiment [8] deals with P. aeruginosa CCARM 2161. Put plainly: MIC by micro broth dilution. The experiment is classed as cell-based. Particulars: Pseudomonas aeruginosa, CCARM2161, read-out: Minimum inhibitory concentration (MIC). As to the method: as §1
Experiment [9] has as its system E. faecium NCIM 5421. The experiment is described as follows: MIC by micro broth dilution. It counts as cell-based. Particulars: Enterococcus faecium, NCIM5421, read-out: Minimum inhibitory concentration (MIC). As to the method: as §1
Experiment [10] relates to E. fecalis CCARM 5168. Put plainly: MIC by micro broth dilution. Particulars: read-out: Minimum inhibitory concentration (MIC). It counts as cell-based. The procedure: as §1
The subject of experiment [11] is E. aerogenes M2-1. The experiment is described as follows: MIC by micro broth dilution. The experiment is classed as cell-based. Particulars: Klebsiella aerogenes, M21, read-out: Minimum inhibitory concentration (MIC). As to the method:
as §1

The subject of experiment [12] is S. aureus CCARM 3505. Put plainly: MIC by micro broth dilution. The experiment is classed as cell-based. Particulars: Staphylococcus aureus, CCARM3505, read-out: Minimum inhibitory concentration (MIC). As to the method:
as §1

The subject of experiment [13] is E. coli MTCC 1687. Put plainly: MIC by micro broth dilution. It counts as cell-based. Particulars: Escherichia coli, MTCC1687, read-out: Minimum inhibitory concentration (MIC). As to the method:
as §1

Experiment [14] deals with P. aeruginosa ATCC 27853. The experiment is described as follows: MIC by micro broth dilution. The experiment is classed as cell-based. Particulars: Pseudomonas aeruginosa, ATCC27853, read-out: Minimum inhibitory concentration (MIC). The procedure: as §1
Experiment [15] concerns A. baumannii CCARM 12020. Put plainly: MIC by micro broth dilution. Particulars: Acinetobacter baumannii, CCARM12020, read-out: Minimum inhibitory concentration (MIC). It counts as cell-based. The procedure:
as §1

Experiment [16] deals with E. faecium CCARM 5207. Put plainly: MIC by micro broth dilution. It counts as cell-based. Particulars: Enterococcus faecium, CCARM5207, read-out: Minimum inhibitory concentration (MIC). As to the method: as §1
For experiment [17], the system named is E. coli BAA 196. Put plainly: MIC by micro broth dilution. Particulars: Escherichia coli, BAA196, read-out: Minimum inhibitory concentration (MIC). The experiment is classed as cell-based. As to the method: as §1
The test system of experiment [18] is A. baumannii CCARM 12001. The experiment is described as follows: MIC by micro broth dilution. The experiment is classed as cell-based. Particulars: Acinetobacter baumannii, CCARM12001, read-out: Minimum inhibitory concentration (MIC). As to the method: as §1
The test system of experiment [19] is A. baumannii ATCC 1906. Put plainly: MIC by micro broth dilution. The experiment is classed as cell-based. Particulars: Acinetobacter baumannii, ATCC1906, read-out: Minimum inhibitory concentration (MIC). As to the method:
as §1

For experiment [20], the system named is S. epidermidis ATCC 35984 biofilm. Put plainly: Biofilm disruption assay (MTT) with compounds and compound loaded beads. The experiment is classed as cell-based. Particulars: for EC50: Staphylococcus epidermidis. As to the method:
S. epidermidis ATCC 35984 was grown in Brain Heart Infusion Agar (BHIA) at 37° C. for 24 h. The loop full of bacterial culture was suspended in sterile water and matched the turbidity against 0.5 McFarland Standard (approximately 1.5×10^8), 100 μl of culture suspension was added into each well of the 96 well plate and plates were incubated at 37° C. for 48 h for biofilm formation. The biofilm formed in each well was washed twice with sterile water to remove the planktonic cells. Then biofilm was treated with 100 yl of BHI broth suspended with various concentrations of DART molecules, followed by incubation of the plates at 37° C. for 24 h. Subsequently the biofilm in the wells were stained with MTT reagent and the plates were incubated at 37° C. for 2 h. The precipitate formed in the wells was dissolved in 100 μl of dimethyl sulfoxide (DMSO) and the absorbance was measured at 600 nm in multi well plate reader to determine the minimum biofilm inhibitory concentration (MBIC). The MBIC was calculated by subtracting the absorbance value of each drug treated sample from that of 48 h growth control.

In experiment [21] the test system is S. epidermidis S5-2. The experiment is described as follows: Sequential ZIB (zone of inhibition) assay for PMMA beads. Particulars: SmartSet HV impregnated beads. The experiment is classed as cell-based, Staphylococcus epidermidis. The procedure: S. epidermidis S5-2 cells were grown in Brain Heart Infusion Agar (BHIA) at 37° C. for 24 h. 100 μl of 0.5 McFarland equal bacterial suspension was spread on BHA plates. Drug loaded beads were placed above these plates. Plates were incubated at 37° C. for 24 h. Next day, zone of inhibition (ZOI) the beads were measured following which the beads were placed on fresh BHA plates with bacterial suspension spread and this experiment was continued up to seven days. The drug release pattern was determined by compiling and analyzing the ZOI data of beads on each ZOI cycle up to seven days.

Regarding `CC1Sc2c(C(=O)O)c(=O)c3cc(F)c(N4CCN(C(=O)c5ccc([N+](=O)[O-])o5)CC4)cc3n21` (centres unmarked) [Compound 11, 6-Fluoro-1-methyl-7-(4-(5-nitrofuran-2-carbonyl)piperazin-1-yl)-4-oxo-1H,4H-[1,3]thiazeto[3,2-a]-quinoline-3-carboxylic acid], the MIC in [1] is under 0.03 µg/mL; in [2] it was 0.13 µg/mL (≈ 0.266 µM); in experiment [3], 0.125 µg/mL (≈ 0.256 µM); in [4], 0.03 µg/mL (≈ 0.0614 µM); in experiment [5], over 16 µg/mL; in [6], 0.125 µg/mL (≈ 0.256 µM). Also, the MIC in experiment [7] was 0.5 µg/mL (≈ 1.02 µM); in experiment [8], over 16 µg/mL; in [9] it was 0.625 µg/mL (≈ 1.28 µM); in experiment [10], 4 µg/mL (≈ 8.19 µM); in experiment [11], 0.25 µg/mL (≈ 0.512 µM); in [12] it was 1 µg/mL (≈ 2.05 µM). Further, the MIC in [13] is 0.25 µg/mL (≈ 0.512 µM); in experiment [14], 1 µg/mL (≈ 2.05 µM); in experiment [15], over 16 µg/mL; in [16], 8 µg/mL (≈ 16.4 µM); in experiment [17], 1 µg/mL (≈ 2.05 µM); in experiment [18], over 16 µg/mL. For the same compound, the MIC in [19] was determined as 1 µg/mL (≈ 2.05 µM). Further, in [7] (Klebsiella pneumonia (susceptible)), the activity in words result is reported as “active”.

Turning to `CC(=O)NC[C@H]1CN(c2ccc(N3CCN(CC(=O)Nc4ncc([N+](=O)[O-])s4)CC3)c(F)c2)C(=O)O1` [Compound 55, (S)-2-(4-(4-(5-(Acetamidomethyl)-2-oxooxazolidin-3-yl)-2-fluorophenyl)piperazin-1-yl)-N-(5-nitrothiazol-2-yl)acetamide], the EC50 in experiment [20] (ATCC35984, 48 h biofilm, 24 h treatment, read-out: Concentration of compounds (mg/ml) for 50% biofilm disruption) is over 2 mg/mL. Besides, the MIC is 0.06 µg/mL (≈ 0.115 µM) in experiment [1]; 0.5 µg/mL (≈ 0.959 µM) in experiment [2]; 0.25 µg/mL (≈ 0.479 µM) in experiment [3]; 0.5 µg/mL (≈ 0.959 µM) in experiment [4]; over 16 µg/mL in experiment [5]; over 16 µg/mL in experiment [7]. Also, the MIC in experiment [8] was over 16 µg/mL; in experiment [9], 0.06 µg/mL (≈ 0.115 µM); in experiment [12], 0.25 µg/mL (≈ 0.479 µM); in experiment [13], over 16 µg/mL; in experiment [14], over 16 µg/mL; in experiment [15], over 16 µg/mL. Besides, the MIC in [17], in experiment [18] and in experiment [19] was over 16 µg/mL each time. For the same compound, the “fold better activity in comparison to commercial linezolid” value in experiment [4] (against MRSA) was found to be 8 fold. The “times more active than linezolid analogue” value in [4] (against MRSA) came to 8 times.

With `CN[C@H](CC(C)C)C(=O)N[C@H]1C(=O)N[C@@H](CC(N)=O)C(=O)N[C@H]2C(=O)N[C@H]3C(=O)N[C@H](C(=O)N[C@H](C(=O)O)c4cc(O)cc(O)c4-c4cc3ccc4O)[C@H](O)c3ccc(c(Cl)c3)Oc3cc2cc(c3O[C@@H]2O[C@H](CO)[C@@H](O)[C@H](O)[C@H]2O[C@H]2C[C@](C)(N)[C@H](O)[C@H](C)O2)Oc2ccc(cc2Cl)[C@H]1O` [Vancomycin, reference compound], the “Sequential ZOI” value worked out at 1.4 cm in experiment [21] (Day-1); 1.2 cm in [21] (Day-2); 0.7 cm in [21] (Day-3); 0.7 cm in [21] (Day-4); 0 cm in [21] (Day-5); 0 cm in experiment [21] (Day-6). Further, the “Sequential ZOI” value in [21] (Day-7) worked out at 0 cm. Further, in [20] (PMMA beads of 3 mm diameter), the Biofilm disruption was found to be 40. Also, in [20] (ATCC35984, read-out: Concentration of compounds (mg/ml) for 50% biofilm disruption), the EC50 was 0.02 to 0.03 mg/mL (≈ 13.8 to 20.7 µM).
